From patent publication US11331299B2, “Medicinal use of serrulatane diterpenes” (The University of Sydney, priority 2016, dated 2022)
Read-outs that look alike come from different tables or passages of the source.

System: 280 human cancer cell lines
Assay: OncoPanel cell proliferation assay (10-day)
Type: cell-based
Details: Homo sapiens; for GI50: read-out: Cell Count GI50; for IC50: read-out: Cell Count IC50; for EC50: read-out: Cell Count EC50
[1] = KHOS-240S, Soft Tissue - Osteosarcoma
[2] = ME-180, ME-180, Female GU - Ovary
[3] = MG-63, MG-63, Soft Tissue - Osteosarcoma
[4] = MHH-PREB-1, MHH-PREB-1, Leukemia
[5] = MIA PaCa-2, Mia PaCa-2, Pancreas
[6] = MS751, MS751, Female GU - Ovary
[7] = Malme-3M, MALME3M, Skin (Melanoma)
[8] = NCI-H292, NCI-H292, Lung - NSCLC
[9] = NCI-H441, NCIH441, Lung - NSCLC
[10] = NCI-H460, NCI-H460, Lung - NSCLC
[11] = NCI-H520, NCI-H520, Lung - NSCLC
[12] = NCI-H596, NCI-H596, Lung - NSCLC
[13] = NCI-H661, NCI-H661, Lung - NSCLC
[14] = NTERA-2-cl-D1, NTERA-2 cl.D1, Testis
[15] = OVCAR-3, OVCAR3, Female GU - Ovary
[16] = RPMI-7951, RPMI-7951, Skin (Melanoma)
[17] = SAOS-2, SaOS2, Soft Tissue - Osteosarcoma

## CC(C)=CCC[C@H](CO)[C@@H]1CC[C@@H](C)c2c1cc(C)c(O)c2O [Compound 1, 7,8,18-trihydroxyserrulat-14-ene]
[1]
  GI50: 0.95 µM
  IC50: 0.95 µM
KLE, Female GU - Uterus
  EC50: 3.7 µM
  GI50: 3.56 µM
  IC50: 3.82 µM
KPL-1, KPL-1, Breast
  EC50: 0.81 µM
  GI50: 0.81 µM
  IC50: 0.81 µM
KU812, KU812, Leukemia
  EC50: 2.81 µM
  GI50: 2.57 µM
  IC50: 2.81 µM
L-428, L-428, Lymphoma
  EC50: 1.08 µM
  GI50: 1.08 µM
  IC50: 1.09 µM
LNCaP, Prostate
  EC50: 3.9 µM
  GI50: 3.47 µM
  IC50: 3.9 µM
LS-123, LS123, Colon
  EC50: 1.13 µM
  GI50: 1.03 µM
  IC50: 1.16 µM
LS-411N, LS411N, Colon
  EC50: 8.72 µM
  GI50: 8.51 µM
  IC50: 8.72 µM
LS-1034, LS1034, Colon
  EC50: 1.87 µM
  GI50: 1.83 µM
  IC50: 1.87 µM
M059J, CNS - Glioma
  EC50: 3.09 µM
  GI50: 3.02 µM
  IC50: 3.09 µM
MC116, MC116, Lymphoma
  EC50: 3.79 µM
  GI50: 3.78 µM
  IC50: 3.79 µM
MC-IXC, CNS - Neuroblastoma
  EC50: 4.01 µM
  GI50: 4 µM
  IC50: 4.01 µM
MCF7, MCF7, Breast
  EC50: 1.37 µM
  GI50: 1.35 µM
  IC50: 1.37 µM
MDA-MB-231, MDA MB 231, Breast
  EC50: 1.47 µM
  GI50: 1.47 µM
  IC50: 1.48 µM
MDA-MB-436, MDA-MB-436, Breast
  EC50: 2.68 µM
  GI50: 2.67 µM
  IC50: 2.69 µM
MDA-MB-453, MDA MB 453, Breast
  EC50: 0.78 µM
  GI50: 0.77 µM
  IC50: 0.78 µM
MDA-MB-468, MDA MB 468, Breast
  EC50: 2.75 µM
  GI50: 2.74 µM
  IC50: 2.76 µM
[2]
  EC50: 2.25 µM
  GI50: 2.21 µM
  IC50: 2.26 µM
MEG-01, MEG01, Leukemia
  EC50: 7.35 µM
  GI50: 7.22 µM
  IC50: 7.35 µM
MES-SA, Soft Tissue - Sarcoma
  EC50: 1.23 µM
  GI50: 1.22 µM
  IC50: 1.23 µM
[3]
  EC50: 9.24 µM
  GI50: 9.16 µM
  IC50: 9.24 µM
[4]
  EC50: 6.17 µM
  GI50: 6.17 µM
  IC50: 6.17 µM
[5]
  EC50: 2.97 µM
  GI50: 2.97 µM
  IC50: 2.97 µM
MOLT-3, MOLT-3, Leukemia
  EC50: 2.13 µM
  GI50: 2.11 µM
  IC50: 2.13 µM
MOLT-16, MOLT-16, Leukemia
  EC50: 1.84 µM
  GI50: 1.84 µM
  IC50: 1.84 µM
[6]
  EC50: 2.23 µM
  GI50: 2.21 µM
  IC50: 2.23 µM
MT-3, Colon
  EC50: 3.67 µM
  GI50: 3.66 µM
  IC50: 3.67 µM
MV4-11, MV-4-11, Leukemia
  EC50: 3.58 µM
  GI50: 3.57 µM
  IC50: 3.58 µM
MX1, Leukemia
  EC50: 1.29 µM
  GI50: 1.29 µM
  IC50: 1.29 µM
[7]
  EC50: 1.79 µM
  GI50: 1.66 µM
  IC50: 1.79 µM
MeWo, Skin (Melanoma)
  EC50: 1.32 µM
  GI50: 1.31 µM
  IC50: 1.32 µM
NALM-6, NALM-6, Leukemia
  EC50: 1.81 µM
  GI50: 1.81 µM
  IC50: 1.81 µM
NAMALWA, Lymphoma
  EC50: 3.39 µM
  GI50: 3.39 µM
  IC50: 3.39 µM
NCI-H69, NCI-H69, Lung - SCLC
  EC50: 6.3 µM
  GI50: 5.84 µM
  IC50: 6.44 µM
[8]
  EC50: 3.2 µM
  GI50: 3.18 µM
  IC50: 3.2 µM
NCI-H295R, Endocrine - Adrenal gland
  GI50: 13.5 µM
[9]
  EC50: 12.1 µM
  GI50: 11.7 µM
  IC50: 12.1 µM
NCI-H446, NCIH446, Lung - SCLC
  EC50: 10.3 µM
  GI50: 10 µM
  IC50: 10.3 µM
[10]
  EC50: 2.34 µM
  GI50: 2.33 µM
  IC50: 2.34 µM
NCI-H508, NCI-H508, Colon
  EC50: 14.4 µM
  GI50: 14.3 µM
  IC50: 14.4 µM
[11]
  EC50: 2.43 µM
  GI50: 2.41 µM
  IC50: 2.43 µM
[12]
  EC50: 8.78 µM
  GI50: 8.41 µM
  IC50: 8.78 µM
[13]
  EC50: 2.28 µM
  GI50: 2.28 µM
  IC50: 2.29 µM
NCI-H747, NCI-H747, Colon
  EC50: 3.09 µM
  GI50: 3.1 µM
  IC50: 3.11 µM
[14]
  EC50: 2.25 µM
  GI50: 2.2 µM
  IC50: 2.25 µM
OCUG-1, OCUG-1, Liver
  EC50: 4.3 µM
  GI50: 4.29 µM
  IC50: 4.3 µM
OE19, OE19, Head and Neck
  EC50: 3.23 µM
  GI50: 3.21 µM
  IC50: 3.23 µM
OE21, OE21, Head and Neck
  EC50: 3.68 µM
  GI50: 3.67 µM
  IC50: 3.68 µM
[15]
  EC50: 1.53 µM
  GI50: 1.52 µM
  IC50: 1.57 µM
PA-1, Female GU - Ovary
  EC50: 4.21 µM
  GI50: 4.21 µM
  IC50: 4.21 µM
PANC-1, PANC-1, Pancreas
  EC50: 2.87 µM
  GI50: 2.83 µM
  IC50: 2.87 µM
PC-3, Prostate
  EC50: 3.88 µM
  GI50: 3.86 µM
  IC50: 3.88 µM
PFSK-1, PFSK-1, CNS - Glioma
  EC50: 4.32 µM
  GI50: 4.31 µM
  IC50: 4.33 µM
PSN1, PSN-1, Pancreas
  EC50: 2.32 µM
  GI50: 2.32 µM
  IC50: 2.32 µM
RD, Soft Tissue - Sarcoma
  EC50: 0.81 µM
  GI50: 0.81 µM
  IC50: 0.81 µM
RKO, Colon
  EC50: 1.69 µM
  GI50: 1.69 µM
  IC50: 1.69 µM
RKOE6, RKOE6, Colon
  EC50: 1.72 µM
  GI50: 1.72 µM
  IC50: 1.72 µM
RPMI-6666, RPMI 6666, Lymphoma
  EC50: 3.53 µM
  GI50: 3.44 µM
  IC50: 3.53 µM
[16]
  EC50: 0.7 µM
  GI50: 0.7 µM
  IC50: 0.7 µM
RPMI-8226, RPMI 8226, Myeloma
  EC50: 0.68 µM
  GI50: 0.67 µM
  IC50: 0.68 µM
RS4-11, RS4, 11, Leukemia
  EC50: 1.77 µM
  GI50: 1.71 µM
  IC50: 1.77 µM
Raji, Lymphoma
  EC50: 4.6 µM
  GI50: 4.59 µM
  IC50: 4.6 µM
Ramos, Ramos (RA 1), Lymphoma
  EC50: 2.96 µM
  GI50: 2.96 µM
  IC50: 2.96 µM
[17]
  EC50: 1.98 µM
  GI50: 2.04 µM
  IC50: 2.1 µM
SCC-4, SCC-4, Head and Neck
  EC50: 4.66 µM
  GI50: 4.63 µM
  IC50: 4.72 µM
SCC-9, SCC-9, Head and Neck
  EC50: 3.44 µM
  GI50: 3.44 µM
  IC50: 3.45 µM
SCC-25, SCC-25, Head and Neck
  EC50: 3.94 µM
  GI50: 3.95 µM
  IC50: 3.96 µM
SCaBER, Bladder
  EC50: 3.12 µM
  GI50: 3.1 µM
  IC50: 3.12 µM
SH-4, Skin (Melanoma)
  EC50: 1.95 µM
